This note sets out measurements from patent US11052245B2, “Device and method for localized delivery and extraction of material” (Helsingin Yliopisto, priority 2015, dated 2021).

The nature of data set [1]: In-vitro delivery of methylene blue into human nails by MHD, photograph. The data set is classed as in vitro ADME. As to conditions: MB 0.01% in PBS 1%, MHD for 10 minutes, graphite electrodes ø=6 mm, 3 mm gap, 400 mA, control immersed 10 minutes without MHD. The method, then: Control: Fingernail was immersed in a solution of MB (0.01%) in PBS (1%) for 10 minutes.
Treatment; Fingernail was immersed in the MB solution and exposed to MHD during 10 minutes. The MHD method applied graphite cylindrical electrodes (ø=6 mm), 3 mm electrode gap, and 400 mA.
The darkest regions correspond to the largest concentration of MB.

Data set [2] in a line: Delivery of phosphotungstic acid into bovine articular cartilage by MHD, imaged with X-ray micro-tomography. In kind it is in vitro ADME. To be noted: PTA 1% in PBS; MHD for 40 s, graphite electrodes ø=6 mm, 3 mm gap, 400 mA; control immersed 40 s without MHD; XMT of 150 μm slices. The text has this: Control: bovine articular cartilage was immersed in 1% PTA (˜2.8 kDa) in phosphate buffered saline (PBS) for 40 s.
Treatment: bovine articular cartilage was immersed in PTA 1% in PBS and exposed to MHD for 40 s. The MHD method applied graphite cylindrical electrodes (ø=6 mm), 3 mm electrode gap, and 400 mA.

Regarding `CN(C)c1ccc2nc3ccc(=[N+](C)C)cc-3sc2c1` [MB, methylene blue], in data set [1], the “Diffusion of MB into nail, treated sample vs control” value is on record as “stronger than in the control”. `O=P(O)(O)O.[O]=[W](=[O])=[O].[O]=[W](=[O])=[O].[O]=[W](=[O])=[O].[O]=[W](=[O])=[O].[O]=[W](=[O])=[O].[O]=[W](=[O])=[O].[O]=[W](=[O])=[O].[O]=[W](=[O])=[O].[O]=[W](=[O])=[O].[O]=[W](=[O])=[O].[O]=[W](=[O])=[O].[O]=[W](=[O])=[O]` [PTA, phosphotungstic acid]: the “Diffusion of PTA into cartilage, treated sample vs control” value in data set [2] is on record as “enhanced diffusion of PTA as compared to the control”.
